Results from paper PMC4738272 (Scientific Reports, 2016).
Entries after “also recorded” stand apart in the source; their conditions may differ. Read-outs that look alike come from different tables or passages of the source.

Key:
[1] = tested on: HepG2; design: method as in PMID 19107278; settings: microfluidic system, double the concentration of APAP of this manuscript; cited from earlier work
[2] = tested on: iPSc differentiated Cardiomyocytes; experiment: MTT viability of cardiac module in 4-organ system; settings: 4-organ co-culture under flow, serum-free medium, 48 h drug treatment, day 7, vs control, DOX 5 μM, ATR 100 μM, VPA 2 mM, APAP 5 mM, AMAP 5 mM
Description: (§1) The four organ in vitro systems were assembled, on day 0, by placing the corresponding surfaces cell side up in a specific chamber of the housing (liver coverslip into chamber 1, cardiac coverslips and cantilevers into chambers 2 and 4, muscle coverslips into chamber 5, and neuron coverslips into chamber 3 and they were then topped with the serum-free co-culture medium (1X Neurobasal Medium, 1X B27, 1X AB/AM, 1X Glutamax (all from Life Technologies)) before locking the system. Right after assembling, the medium was completely replaced with 4 mL of the co-culture defined serum-free medium and the systems placed on a rocking platform inside an incubator. Platforms were checked every day by inspecting for expected cell morphology inside the system and by replacing medium (1.2 mL total volume) from the two reservoirs (30% of the total volume was replaced) with fresh medium. Drug incubation was initiated on day 5 of the co-culture by addition of the drug through the reservoir closer to the liver chamber (no. 1), allowing a first contact of the drug with the liver. 20 μL of the drug stock solution (or vehicle) to achieve a working concentration in 4 mL of total volume in the platform was utilized. On day 6, after 24 hours of drug incubation, 6 μL of the drug stock solution (or vehicle) was added to the fresh medium exchange volume (1.2 mL). After 48 hour of drug incubation, on day 7, systems were disassembled to test organ functionality that same day. For mono-culture conditions, surfaces remained in a 12-well plated with 1 mL of the co-culture defined serum-free medium maintained by daily replacement of half volume.
(§2) Seven days after the initiation of the co-culture, viability of each organ chamber, except for neurons, was evaluated through an MTT assay. […] Cell viability was measured at 570 nm in a Synergy HT plate reader and KC4 software. The results were expressed as the percentage of cell survival relative to the control (untreated or incubated with vehicle). The neuronal fraction viability was evaluated through morphological analysis throughout the co-culture experiment as the final coverslips were used for patch-clamp electrophysiology. Phase images (10X) where obtained every day of the co-culture. Neuronal viability was evaluated by cell morphology integrity and by cell count from day 1 to day 14.

[3] = tested on: Neurons; design: method as in Literature; settings: general toxic effects reported in the literature; ref Literature; cited from earlier work
[4] = tested on: Cardiomyocytes; design: method as in Literature; settings: general toxic effects reported in the literature; ref Literature; cited from earlier work
[5] = cited from earlier work; for Toxic plasma concentration: humans
[6] = tested on: Human Skeletal Myofibers; experiment: MTT viability of skeletal muscle module in 4-organ system; settings: 4-organ co-culture under flow, serum-free medium, 48 h drug treatment, day 7, vs control, DOX 5 μM, ATR 100 μM, VPA 2 mM, APAP 5 mM, AMAP 5 mM
Description: as §1, §2

[7] = tested on: neurons; experiment: Neuron electrophysiology recording (patch clamp); assay type: cell-based, human; settings: 4-organ co-culture under flow, 48 h drug treatment, day 7, vs control, DOX 5 μM, ATR 100 μM, APAP 5 mM
Text: Electrophysiological properties of neuron cultures where recorded on the last day of co-culture following a previously described method. Values of firing, repetitive firing, spontaneous firing, inward sodium current, outward potassium current, action potential peak voltage and the resting membrane potential, characterized the mature functionality of neurons in the in vitro system. Drug alterations of the neuronal electrophysiology are discussed in this manuscript.

[8] = tested on: HepG2/C3A; experiment: Urea quantification, liver fraction of 4-organ system; assay type: cell-based, human; settings: 4-organ co-culture under flow, 48 h drug treatment, vs control; DOX 5 μM, ATR 100 μM, APAP 5 mM, AMAP 5 mM
[9] = tested on: HepG2/C3A; experiment: Human Serum Albumin quantification (ELISA), liver fraction of 4-organ system; assay type: cell-based; settings: 4-organ co-culture under flow, 48 h drug treatment, vs control; DOX 5 μM, ATR 100 μM, VPA 2 mM, APAP 5 mM, AMAP 5 mM
Description: Human Serum Albumin (HSA) production from the liver fraction was tracked throughout the co-culture, by measuring the HSA concentration in the supernatant of the culture as it represents liver protein anabolism. Samples were collected from the exchanged medium (1.2 mL) and stored at −20 °C until analysis. One freeze-thaw cycle occurred before samples were analyzed following manufacturers’ instructions provided in the ELISA Starter Accessory Kit (Bethyl Laboratories Inc, Cat #: E101). Samples were diluted as necessary in sample conjugate/diluent buffer to ensure readings measured within the range of the standard curve. The standard curve was prepared by serial dilutions of human reference serum in sample conjugate/diluent buffer (0–1600 ng/ml).
Final HSA concentrations were calculated in an excel file by first removing the average OD reading measured for blanks from average sample and standard OD readings. Concentrations of standard dilutions were plotted against average OD values measured in XY scatter plots. A standard curve was created by adding an order of 2 polynomial trendline to XY scatter plots and selecting the option to display the equation of the trendline, as well as the R^2 value, on each scatter plot (for ease of analysis HSA sigmoidal curves were split into 3 standard curves with HSA concentration ranges of 0–200 ng/ml, 200–800 ng/ml and […]). Quadratic equations were rearranged to make X (sample HSA concentration) the unknown variant. Y values (OD values) and a/b/c constants generated from trendline equations were inputted into rearranged quadratic equations per assay. HSA concentrations calculated were corrected accordingly for any differences in culture final volumes, sample dilutions during assays and cells number.

[10] = tested on: Liver; design: method as in Literature; settings: general toxic effects reported in the literature; ref Literature; cited from earlier work
[11] = tested on: Muscle; design: method as in Literature; settings: general toxic effects reported in the literature; ref Literature; cited from earlier work
[12] = tested on: iPSc differentiated Cardiomyocytes; experiment: Cardiac beating frequency from video recordings; assay type: cell-based, human; settings: 4-organ co-culture under flow, 48 h drug treatment, day 7, vs control; ATR 100 μM, VPA 2 mM, APAP 5 mM
Description: Seven or fourteen days after the co-culture, cardiac beating frequency was quantified from video recordings of three different areas of each of the cMEA surfaces, where the cardiomyocytes culture where located. Surfaces were located in a 37 °C bath platform containing co-culture medium with 50 mM HEPES on the stage of a Zeiss Axioscope 2FS upright microscope. Beats were counted in a period of 10 s, and the average number of 3 values was obtained. Drug effect was plotted as percentage of change compared to the control conditions.

[13] = tested on: neurons; experiment: Neuronal viability by morphological analysis and cell count in 4-organ system; settings: 4-organ co-culture under flow, serum-free medium, 48 h drug treatment, day 7, vs control; DOX 5 μM, ATR 100 μM, VPA 2 mM, APAP 5 mM, AMAP 5 mM
Description: as §1, §2

[14] = tested on: Human Skeletal Myofibers; experiment: Myotube stimulated contraction (binary: contracting or not); assay type: cell-based; settings: 4-organ co-culture under flow, 48 h drug treatment, day 7, broad-field electrical stimulation, DOX 5 μM, ATR 100 μM, VPA 2 mM, APAP 5 mM, AMAP 5 mM
Description: Myotube contraction in coverslips was evaluated after the co-culture was finalized. Individual surfaces were evaluated as previously reported in the group. Drugs effects were quantify in a binary code mode, cells were or were not contracting.

CC(=O)Nc1ccc(O)cc1 [Acetaminophen]
Reduction in HepG2 viability [1]: 60%
Cardiomyocyte viability, loss [2]: Toxicity not observed
Cardiomyocyte viability, loss ([2]; listed as APAP): not significantly affected; also recorded: preserved (even improved)
Drug effects on cell functionality, Neurons, Literature [3]: Toxicity not reported
Drug effects on cell viability, Neurons, Literature [3]: Toxicity not reported
Drug effects on cell functionality, Cardiomyocytes, Literature [4]: Cardio-protective effect
Drug effects on cell viability, Cardiomyocytes, Literature [4]: Cardio-protective effect
Therapeutic, and safe, plasma concentration ([5]; 500–1000 mg orally three times a day): low micromolar range
Toxic plasma concentration ([5]; after 24 hours): less than 50 μM
Toxic plasma concentration ([5]; first two hours after ingestion): around 2 mM
Skeletal muscle viability, loss [6]: Toxicity not observed
Skeletal muscle viability, loss ([6]; listed as APAP): not significantly affected
Neuronal ion currents and firing of stimulated action potentials [7]: no changes
Neuronal repetitive and spontaneous firing ability ([7]; AMAP 5 mM): loss and lost
Neuronal electrophysiology, overall effect ([7]; VPA 2 mM, AMAP 5 mM): Electrophysiology affected
Urea production, increase [8]: 52 ± 13%
HSA (albumin) production, increase [9]: not affected
Drug effects on cell functionality, Liver, Literature [10]: Compromised
Drug effects on cell viability, Liver, Literature [10]: Toxicity reported
Drug effects on cell functionality, Muscle, Literature [11]: Myo-protective effect
Drug effects on cell viability, Muscle, Literature [11]: Myo-protective effect
Cardiomyocyte beating rate (beat frequency), increase [12]: 27 ± 9% increase in beating frequency
Neuronal cell viability, loss (cell loss by morphology/cell count) [13]: 50 ± 18% loss of cell viability
Skeletal muscle loss of contractile ability (share of cultures in which contraction ceased) [14]: 37% loss of contractile ability
Skeletal muscle loss of contractile ability (share of cultures in which contraction ceased) ([14]; listed as APAP): 37%
